Results taken from article PMC11187126, “Structure and dynamics of the pyroglutamylated RF-amide peptide QRFP receptor GPR103” (Nature Communications, 2024).
Where two headings read alike, the source gives them in different places. No end group written: not given here.

Molecular target: T1, wild-type GPR103 (Homo sapiens, UniProt Q96P65)
T1 construct: we used human full-length QRFPR-encoding plasmids; expressed in transfected cells; host or cells: HEK293 cells, pCAGGS vector
T1 sequence (Q96P65 1-431): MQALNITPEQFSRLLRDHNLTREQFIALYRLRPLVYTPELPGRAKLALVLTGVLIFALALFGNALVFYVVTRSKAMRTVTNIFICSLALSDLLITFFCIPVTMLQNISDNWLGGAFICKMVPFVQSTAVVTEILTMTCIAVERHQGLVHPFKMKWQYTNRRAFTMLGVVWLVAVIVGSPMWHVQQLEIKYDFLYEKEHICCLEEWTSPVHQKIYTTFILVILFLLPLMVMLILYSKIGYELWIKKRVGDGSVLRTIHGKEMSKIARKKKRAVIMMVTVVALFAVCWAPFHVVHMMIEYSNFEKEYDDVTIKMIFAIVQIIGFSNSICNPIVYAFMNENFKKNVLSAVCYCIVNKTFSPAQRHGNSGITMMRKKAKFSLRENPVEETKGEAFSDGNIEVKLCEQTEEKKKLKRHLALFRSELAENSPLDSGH
Experiment: TGFα shedding assay, HEK293 cells; WT titrated to lower expression (1:1 to 1:50)
Type: cell-based
Procedure: For the TGFα shedding assay and the flow cytometry analysis, we used human full-length QRFPR-encoding plasmids. Specifically, GPR103 was N-terminally modified with an HA signal sequence followed by a FLAG epitope and then a flexible linker ([…]; the FLAG epitope is underlined) and inserted into the pCAGGS vector. Plasmid encoding GPR103 mutants were generated using Quickchange Site-Directed Mutagensis kit (Agilent).
The TGFα shedding assay was performed as described previously with minor modifications. Plasmid transfection was performed in a 6-well plate with a mixture of 500 ng (per well in a 6-well plate) AP-TGFα-encoding plasmid and 200 ng GPR103-encoding plasmid. After 1-day culture, the transfected cells were harvested by trypsinization, pelleted by centrifugation at 190 × g for 5 min, and washed once with 5 mM HEPES (pH 7.4)-containing Hank’s Balanced Salt Solution (HBSS). After centrifugation, the cells were resuspended in 8 mL of the HEPES-containing HBSS. The cell suspension was seeded in a 96-well culture plate (cell plate) at a volume of 90 μL (per well hereafter) and incubated in a 37 °C incubator with 5% CO2 for 30 min. […] After spinning the cell plates at 190 × g for 2 min, 80 μL of conditioned media was transferred to an empty 96-well plate (conditioned media (CM) plate). Then, 80 μL of AP reaction solution (10 mM p-nitrophenylphosphate (p-NPP), 120 mM Tris-HCl (pH 9.5), 40 mM NaCl, and 10 mM MgCl2) was dispensed into the cell plates and the CM plates. Absorbance at 405 nm of the plates was measured using a microplate reader (SpectraMax 340 PC384, Molecular Devices) before and after 1-h incubation at room temperature. Ligand-induced AP-TGFα release was calculated by subtracting spontaneous AP-TGFα release signal from ligand-induced AP-TGFα release signal. The AP-TGFα release signals were fitted to a four-parameter sigmoidal concentration–response curve, using the Prism 10 software (GraphPad Prism). For each replicate experiment, the pEC50 parameter (negative logarithmic values of EC50 values) of the individual GPR103 mutants were normalized to that of the wild-type GPR103 performed in parallel, and resulting ∆pEC50 values were used to denote ligand response activity of the mutants. […]
Exp. le vel: WT (1:5 0)Exp. le vel: WT (1:5 0)Exp. le vel: WT (1:5 0)Exp. le vel: WT (1:2 0)Exp. le vel: WT (1:2 0)Exp. le vel: WT (1:1 0) […]
L1 4N - t e r mA F2 5N - t e r mA I 2 6N - t e r mA Y 2 9N - t e r mA C 9 82 .5 7A T10 22 .6 1A Exp . l eve l: WT (1 :5)Exp . l evel : >WT (1 :1)Exp. le vel: WT (1:2 0)Exp. le vel: WT (1:2 0)Exp. le vel: WT (1:5 0)Exp . l eve l: WT (1 :1) […]
Exp. le vel: WT (1:1 0)Exp. le vel: WT (1:2 0) C 1 1 83 .2 5AExp. le vel: WT (1:5 0)Exp. le vel: WT (1:5 0)Exp. le vel: WT (1:2 0)Exp . l eve l: WT (1 :5) […]
Exp. le vel: WT (1:5 0)Exp. le vel: WT (1:1 0)Exp. le vel: WT (1:5 0) E203ECL2AExp . l evel : >WT (1 :1)Exp. le vel: WT (1:5 0)Exp. le vel: WT (1:5 0) […]
Exp . l eve l: WT (1 :1) F28Exp. le vel: WT (1:5 0) C 2 8 56 .4 7AExp. le vel: WT (1:2 0) WExp. le vel: WT (1:2 0) F28Exp. le vel: WT (1:5 0)Exp . l evel : >WT (1 :1) […]
Exp. le vel: WT (1:5 0)Exp. le vel: WT (1:5 0) C 3 2 77 .4 8AExp . l eve l: WT (1 :5)Exp . l evel : >WT (1 :1)Exp . l evel : >WT (1 :1) […]
Suppl eme nt ary Figure 1 | Mutational analysis of GPR103. […]
mutants. Data are presented as mean values ± SEM, normally n=3-5; dots), each performed in triplicate. b-d Cell-surface expression (b) and QRFP26-in-duced activation of GPR103 (c, d) were analyzed by the flow cytometry and the TGFα shedding assay, respectively. From the concentration–response curves (a), Emax (c) and ΔpEC50 (d) values relative to the wild type were calculated. Colors in the mutant bars indicate an expression level matching to that of titrated wild type. Statistical analyses were performed using the ordinary one-way ANOVA followed by Dunnett tests with the expression-matched […]

Emax (HEK293, WT (1:2), mean, read-out: Emax): 102% | Emax (HEK293, WT (1:2), n = 5, read-out: Emax): 102 ± 1.4% | Emax (HEK293, WT (1:5), mean, read-out: Emax): 98% | Emax (HEK293, WT (1:10), mean, read-out: Emax): 85.2% | Emax (HEK293, WT (1:10), n = 5, read-out: Emax): 86.5 ± 1.5% | Emax (HEK293, WT (1:20), mean, read-out: Emax): 68.7% | Emax (HEK293, WT (1:20), n = 5, read-out: Emax): 69.6 ± 1.9% | Emax (HEK293, WT (1:50), mean, read-out: Emax): 40% | Emax (HEK293, WT (1:50), n = 3, read-out: Emax): 38.9 ± 2.7% | EC50 (WT (1:1), n = 5): 5.13 nM | Emax (WT (1:2), Exp. #1): 99.44 % WT | Emax (WT (1:2), Exp. #2): 98.59 % WT | Emax (WT (1:2), Exp. #3): 107.25 % WT | Emax (WT (1:2), Exp. #4): 101.53 % WT | Emax (WT (1:2), Exp. #5): 103.42 % WT | EC50 (WT (1:2), n = 5): 6.61 nM | Emax (WT (1:5), Exp. #1): 95.01 % WT | Emax (WT (1:5), Exp. #2): 93.02 % WT | Emax (WT (1:5), Exp. #3): 103.20 % WT | Emax (WT (1:5), Exp. #4): 97.64 % WT | Emax (WT (1:5), Exp. #5): 100.97 % WT | EC50 (WT (1:5), n = 5): 12.6 nM | Emax (WT (1:10), Exp. #1): 87.43 % WT | Emax (WT (1:10), Exp. #2): 82.73 % WT | Emax (WT (1:10), Exp. #3): 90.71 % WT | Emax (WT (1:10), Exp. #4): 84.24 % WT | Emax (WT (1:10), Exp. #5): 81.03 % WT | EC50 (WT (1:10), n = 5): 15.1 nM | Emax (WT (1:20), Exp. #1): 70.65 % WT | Emax (WT (1:20), Exp. #2): 70.10 % WT | Emax (WT (1:20), Exp. #3): 74.01 % WT | EC50 (WT (1:20), n = 5): 21.4 nM | Emax (WT (1:50), Exp. #3): 46.11 % WT | Emax (WT (1:50), Exp. #4): 34.55 % WT | Emax (WT (1:50), Exp. #5): 39.32 % WT | EC50 (WT (1:50), n = 3): 53.7 nM
Substance: TSGPLGNLAEELNGYSRKKGGFSFRF-NH2 [QRFP26]
